Experimental data from US8952024B2, “Herbicidal pyrimidone derivatives” (E I du Pont de Nemours and Company, priority 2009, dated 2015).

Columns and labels:
Assay type in all cases: in vivo
[1] = system: barnyardgrass (Echinochloa crus-galli); assay: Test A pre-/postemergence plant response
In short: (§1)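 Visually rated 0–100 injury (100 = complete control) versus untreated plants, ~10 days in greenhouse. Application pre- (soil spray, loam/sand) and postemergence (2–10 cm, 1–2 leaf stage), same timepoint.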

[2] = system: velvetleaf (Abutilon theophrasti); assay: Test A pre-/postemergence plant response
In short: as §1

[3] = system: morningglory (Ipomoea spp.); assay: Test A pre-/postemergence plant response
In short: as §1

[4] = system: corn (Zea mays); assay: Test A pre-/postemergence plant response
In short: as §1

[5] = system: wheat (Triticum aestivum); assay: Test A pre-/postemergence plant response
In short: as §1

[6] = system: pigweed (Amaranthus retroflexus); assay: Test A pre-/postemergence plant response
In short: as §1

[7] = system: giant foxtail (Setaria faberii); assay: Test A pre-/postemergence plant response
In short: as §1

[8] = system: large crabgrass (Digitaria sanguinalis); assay: Test A pre-/postemergence plant response
In short: as §1

[9] = system: green foxtail (Setaria viridis); assay: Test B pre-/postemergence plant response
In short: (§2)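 Compound in solvent + surfactant applied pre-em (loam/sand) or post-em (plants 2–18 cm, peat medium); greenhouse hold 13–15 days; visual 0–100 control score.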

[10] = system: giant foxtail (Setaria faberii); assay: Test B pre-/postemergence plant response
In short: as §2

[11] = system: cocklebur (Xanthium strumarium); assay: Test B pre-/postemergence plant response
In short: as §2

[12] = Postemergence, 125 g ai/ha, 0 to 100 scale where 0 is no effect and 100 is complete control
[13] = Postemergence, 500 g ai/ha, visual injury, 0 to 100 scale (0 no effect, 100 complete control), approx. ten days
[14] = Preemergence, 125 g ai/ha, 0 to 100 scale, 0 = no effect, 100 = complete control
[15] = Preemergence, 500 g ai/ha, 0 to 100 scale, 0 = no effect, 100 = complete control
[16] = Postemergence, 31 g ai/ha, 0 to 100 scale (0 no effect, 100 complete control)
[17] = Postemergence, 125 g ai/ha, scale 0 to 100 (0 no effect, 100 complete control)
[18] = Postemergence, 250 g ai/ha, scale 0 to 100 (0 no effect, 100 complete control), 13 to 15 days
[19] = Postemergence, 62 g ai/ha, scale 0 to 100 (0 no effect, 100 complete control)
[20] = Preemergence, 31 g ai/ha, scale 0 to 100 (0 no effect, 100 complete control)
[21] = Preemergence, 62 g ai/ha, scale 0 to 100, 0 no effect, 100 complete control
[22] = Preemergence, 250 g ai/ha, 0 to 100 scale
[23] = Postemergence, 125 g ai/ha, visual injury, 0 to 100 scale (0 no effect, 100 complete control), approx. ten days
[24] = Postemergence, 500 g ai/ha, 0 to 100 scale, 0 = no effect, 100 = complete control, approx. ten days
[25] = Preemergence, 500 g ai/ha, visual injury, 0 to 100 scale (0 no effect, 100 complete control), approx. ten days
[26] = 250 g ai/ha, Preemergence, 0 to 100 scale
[27] = Postemergence, 31 g ai/ha, scale 0 to 100 (0 no effect, 100 complete control)
[28] = Postemergence, 62 g ai/ha, scale 0 (no effect) to 100 (complete control), 13 to 15 days
[29] = Postemergence, 125 g ai/ha, visual rating after 13 to 15 days, scale 0 (no effect) to 100 (complete control)
[30] = Postemergence, 250 g ai/ha, scale 0 to 100
[31] = Preemergence, 125 g ai/ha, 0 to 100 scale

In the case of CCc1cccc(-n2c(-c3ccccc3)ncc(C(=O)C3=C(O)CCCC3=O)c2=O)c1 [Compound 220], the “Plant response rating, Barnyardgrass” value [1, 12] is reported as 90, the “Barnyardgrass plant response rating” value [1, 13] is reported as 90 and the “Plant response rating, Barnyardgrass” value [1, 14] is reported as 10. For the same compound, the “Plant response rating, Barnyardgrass” value [1, 15] was 90, the “Plant response rating, Velvetleaf” value [2, 12] was 100 and the “Velvetleaf plant response rating” value [2, 13] was 100. The “Plant response rating, Velvetleaf” value [2, 14] was 40, the “Plant response rating, Velvetleaf” value [2, 15] was 100 and the “Plant response rating, Morningglory” value [3, 12] was 100. For the same compound, the “Morningglory plant response rating” value [3, 13] was 100, the “Plant response rating, Morningglory” value [3, 14] was 0 and the “Plant response rating, Morningglory” value [3, 15] was 70. For the same compound, the “Plant response rating, Corn” value [4, 12] was 0, the “Corn plant response rating” value [4, 13] was 30 and the “Plant response rating, Corn” value [4, 14] was 0. For the same compound, the “Plant response rating, Corn” value [4, 15] was 10, the “Plant response rating, Wheat” value [5, 12] was 0 and the “Wheat plant response rating” value [5, 13] was 20. For the same compound, the “Plant response rating, Wheat” value [5, 14] was 0, the “Plant response rating, Wheat” value [5, 15] was 0 and the “Plant response rating, Pigweed” value [6, 12] was 100. The “Pigweed plant response rating” value [6, 13] was 100, the “Plant response rating, Pigweed” value [6, 14] was 80 and the “Plant response rating, Pigweed” value [6, 15] was 100. For the same compound, the “Plant response rating, Foxtail, Giant” value [7, 12] was 20, the “Foxtail, Giant plant response rating” value [7, 13] was 60 and the “Plant response rating, Foxtail, Giant” value [7, 14] was 0. For the same compound, the “Plant response rating, Foxtail, Giant” value [7, 15] was 40, the “Plant response rating, Crabgrass, Large” value [8, 12] was 50 and the “Crabgrass, Large plant response rating” value [8, 13] was 90. The “Plant response rating, Crabgrass, Large” value [8, 14] was 20, the “Plant response rating, Crabgrass, Large” value [8, 15] was 90 and the “Plant response rating, Foxtail, Green” value [9, 16] was 60. The “Plant response rating, Foxtail, Green” value [9, 17] was 80, the “Plant response rating, Foxtail, Green” value [9, 18] was 90 and the “Plant response rating, Foxtail, Green” value [9, 19] was 65. The “Plant response rating, Foxtail, Green” value [9, 20] was 80, the “Plant response rating, Foxtail, Green” value [9, 21] was 90 and the “Foxtail, Green plant response rating” value [9, 22] was 100. For the same compound, the “Plant response rating, Foxtail, Giant” value [10, 16] was 30, the “Plant response rating, Foxtail, Giant” value [10, 17] was 55 and the “Plant response rating, Foxtail, Giant” value [10, 18] was 95. For the same compound, the “Plant response rating, Foxtail, Giant” value [10, 19] was 50, the “Plant response rating, Foxtail, Giant” value [10, 20] was 0 and the “Plant response rating, Foxtail, Giant” value [10, 21] was 0. For the same compound, the “Plant response rating, Foxtail, Giant” value ([10]; Preemergence, 125 g ai/ha, scale 0 to 100, 0 no effect, 100 complete control) was 0, the “Foxtail, Giant plant response rating” value [10, 22] was 75 and the “Plant response rating, Cocklebur” value [11, 20] was 0. For the same compound, the “Plant response rating, Cocklebur” value [11, 21] was 0 and the “Cocklebur plant response rating” value [11, 22] was 0.

With O=C1CCCC(O)=C1C(=O)c1cnc(-c2ccccc2)n(-c2ccc(F)cc2)c1=O [Compound 24] the “Barnyardgrass plant response rating” value [1, 23] was 10, the “Plant response rating, Barnyardgrass” value [1, 24] was 70 and the “Plant response rating, Barnyardgrass” value [1, 14] was 10. For the same compound, the “Plant response rating, Barnyardgrass” value [1, 25] was 90, the “Velvetleaf plant response rating” value [2, 23] was 100 and the “Plant response rating, Velvetleaf” value [2, 24] was 100. The “Plant response rating, Velvetleaf” value [2, 14] was 90, the “Plant response rating, Velvetleaf” value [2, 25] was 100 and the “Morningglory plant response rating” value [3, 23] was 70. The “Plant response rating, Morningglory” value [3, 24] was 100, the “Plant response rating, Morningglory” value [3, 14] was 20 and the “Plant response rating, Morningglory” value [3, 25] was 80. For the same compound, the “Corn plant response rating” value [4, 23] was 0, the “Plant response rating, Corn” value [4, 24] was 30 and the “Plant response rating, Corn” value [4, 14] was 0. The “Plant response rating, Corn” value [4, 25] was 0, the “Wheat plant response rating” value [5, 23] was 0 and the “Plant response rating, Wheat” value [5, 24] was 30. For the same compound, the “Plant response rating, Wheat” value [5, 14] was 0, the “Plant response rating, Wheat” value [5, 25] was 20 and the “Pigweed plant response rating” value [6, 23] was 90. For the same compound, the “Plant response rating, Pigweed” value [6, 24] was 100, the “Plant response rating, Pigweed” value [6, 14] was 90 and the “Plant response rating, Pigweed” value [6, 25] was 100. The “Foxtail, Giant plant response rating” value [7, 23] was 70, the “Plant response rating, Foxtail, Giant” value [7, 24] was 90 and the “Plant response rating, Foxtail, Giant” value [7, 14] was 40. The “Plant response rating, Foxtail, Giant” value [7, 25] was 100, the “Crabgrass, Large plant response rating” value [8, 23] was 70 and the “Plant response rating, Crabgrass, Large” value [8, 24] was 90. The “Plant response rating, Crabgrass, Large” value [8, 14] was 30, the “Plant response rating, Crabgrass, Large” value [8, 25] was 100 and the “Plant response rating, Foxtail, Green” value [9, 26] was 100. The “Plant response rating, Foxtail, Green” value [9, 27] was 40, the “Plant response rating, Foxtail, Green” value [9, 28] was 40 and the “Plant response rating, Foxtail, Green” value [9, 29] was 90. For the same compound, the “Foxtail, Green plant response rating” value [9, 30] was 95, the “Plant response rating, Foxtail, Green” value [9, 20] was 0 and the “Plant response rating, Foxtail, Green” value [9, 21] was 40. The “Foxtail, Green plant response rating” value [9, 31] was 100, the “Plant response rating, Foxtail, Giant” value [10, 26] was 100 and the “Plant response rating, Foxtail, Giant” value [10, 27] was 70. For the same compound, the “Plant response rating, Foxtail, Giant” value [10, 28] was 85, the “Plant response rating, Foxtail, Giant” value [10, 29] was 90 and the “Foxtail, Giant plant response rating” value [10, 30] was 95. The “Plant response rating, Foxtail, Giant” value [10, 20] was 30, the “Plant response rating, Foxtail, Giant” value [10, 21] was 85 and the “Foxtail, Giant plant response rating” value [10, 31] was 90. For the same compound, the “Plant response rating, Cocklebur” value [11, 26] was 95, the “Plant response rating, Cocklebur” value [11, 27] was 90 and the “Plant response rating, Cocklebur” value [11, 28] was 98. For the same compound, the “Plant response rating, Cocklebur” value [11, 29] was 98, the “Cocklebur plant response rating” value [11, 30] was 100 and the “Plant response rating, Cocklebur” value [11, 20] was 10. For the same compound, the “Cocklebur plant response rating” value [11, 31] was 95.
